Results on one molecule are retold here after article PMC3621900 (Nature Communications, 2013).

The test has as its system nicotinic acetylcholine receptor (nAChR). Put plainly: whole-cell patch clamp. On the set-up: species or system Apis mellifera. A general note: In patch-clamp work, channel activity is measured electrically.

With `O=[N+]([O-])NC1=NCCN1Cc1ccc(Cl)nc1` [imidacloprid], the IC50 was found to be 295 nM.

By IC50 is commonly meant the concentration at which inhibition is half-maximal. A higher IC50 goes with a need for much substance.
